Molecular target: T1, human HSL (Homo sapiens, UniProt Q05469)
T1 construct: generate a full length human HSL ORF with a 3′-His6 tag; made in house; host or cells: High 5 insect cells (baculovirus, pFast-BAC)
T1 sequence (Q05469 1-1076): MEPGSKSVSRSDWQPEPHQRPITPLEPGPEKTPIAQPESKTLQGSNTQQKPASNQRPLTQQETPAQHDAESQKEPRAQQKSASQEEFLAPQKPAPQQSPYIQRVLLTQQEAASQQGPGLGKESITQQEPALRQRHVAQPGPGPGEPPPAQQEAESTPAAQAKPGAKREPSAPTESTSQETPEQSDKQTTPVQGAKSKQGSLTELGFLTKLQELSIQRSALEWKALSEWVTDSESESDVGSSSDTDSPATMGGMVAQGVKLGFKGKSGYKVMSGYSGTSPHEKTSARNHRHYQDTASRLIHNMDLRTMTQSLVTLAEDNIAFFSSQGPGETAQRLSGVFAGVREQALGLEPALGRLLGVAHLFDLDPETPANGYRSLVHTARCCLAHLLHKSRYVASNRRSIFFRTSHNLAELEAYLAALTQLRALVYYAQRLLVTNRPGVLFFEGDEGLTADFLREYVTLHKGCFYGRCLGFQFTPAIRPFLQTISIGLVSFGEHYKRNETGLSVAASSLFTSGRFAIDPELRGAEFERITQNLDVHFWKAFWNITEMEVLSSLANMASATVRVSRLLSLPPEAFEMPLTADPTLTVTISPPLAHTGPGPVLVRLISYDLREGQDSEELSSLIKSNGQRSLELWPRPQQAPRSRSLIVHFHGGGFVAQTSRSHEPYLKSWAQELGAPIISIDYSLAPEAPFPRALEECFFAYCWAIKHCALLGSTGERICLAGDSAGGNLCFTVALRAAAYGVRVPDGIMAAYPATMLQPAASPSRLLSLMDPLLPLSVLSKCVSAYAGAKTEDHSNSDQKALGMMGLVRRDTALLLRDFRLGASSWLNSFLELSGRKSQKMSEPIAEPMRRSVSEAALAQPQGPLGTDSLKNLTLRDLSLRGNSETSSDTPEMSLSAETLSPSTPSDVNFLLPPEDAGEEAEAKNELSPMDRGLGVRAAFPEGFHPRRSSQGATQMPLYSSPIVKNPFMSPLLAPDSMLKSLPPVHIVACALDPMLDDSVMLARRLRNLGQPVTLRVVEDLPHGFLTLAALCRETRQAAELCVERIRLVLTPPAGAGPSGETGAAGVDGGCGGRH
Experiment: Human Hormone-Sensitive Lipase (HSL) enzyme inhibition assay (colorimetric, DMPT substrate)
Type: biochemical
Conditions: human full length HSL-His6, 2,3-dimercapto-1-propanol tributyrate substrate, 37° C. 20 minutes, absorbance at 405 nm; read-out: HSL hum IC50
Method: Production of Human Full Length Hormone Sensitive Lipase-His^6:
1) Cloning: cDNA was prepared from commercial human brain polyA+ RNA and used as a template in overlapping PCR to generate a full length human HSL ORF with a 3′-His6 tag. This full length insert was cloned into the pFast-BAC vector and the DNA-sequence of several single clones was verified. DNA from a correct full length clone with the 3′His6 tag was used to transform the E. coli strain DH10BAC. Resulting bacmid DNA was used to generate a titered baculovirus stock for protein generation. The sequence of the encoded HSL conforms to Swissprot entry Q05469, with the additional C-terminal His6-tag. 2) Protein purification: Culture: 5.5 L, High 5 cells expressing human full length HSL-His^6, 48 hr., containing 25 μM E-64. Cell count: […], 90% viable. Cells were thawed. On ice, cells were suspended in Base Buffer containing 10% glycerol, 25 mM Tris-Cl, 300 mM NaCl, 10 mM imidazole, 10 mM 2-mercaptoethanol, 2 μg pepstatin/ml, 2 μg leupeptin/ml, 2 μg antipain/ml, pH 8.0 at 4° C. in a final volume of 475 ml with 3.75×10^7 cells/ml. […] was done at 3×30 sec., Lubrol PX was added to 0.2% final concentration followed by stirring for 15 min. at 4° C. and centrifugation at 25 k×g, 60 min., 4° C. Soluble proteins were mixed with 60 ml of pre-washed and equilibrated Ni-NTA Agarose (Qiagen 30210) followed by tumbling end-over-end, 45 min., 4° C., centrifugation 1000 rpm 5 min and letting resin settle 5 min. Supernatant was removed, the resin washed in the centrifuge vessel using 5 volumes of Base Buffer containing 0.2% Lubrol PX. Centrifugation was done again, then the supernatant discarded. The resin was poured onto a 0.8 μm membrane in a disposable filter unit (Nalge 450-0080), and washed with 5 volumes of Base Buffer containing 0.2% Lubrol PX. It was then washed with 30 volumes of Base Buffer containing 60 mM imidazole pH 7.5 at 4° C. The protein was eluated with 5 volumes of 25 mM Tris-Cl, 300 mM NaCl, 200 mM imidazole, 10 mM 2-mercaptoethanol, pH 7.5 at 4° C. by tumbling resin with buffer end-over-end, 30 min., 4° C. The resin was captured on a 0.2 μm membrane disposable filter unit (Millipore SCGP U02 RE) and the eluate collected in the reservoir. The eluate was concentrated using a 30 k MWCO centrifugal filter device (Sartorius Vivascience Vivacell 100, VC1022), to 20 ml. It was then dialyzed overnight at 4° C., two times against 2 L of 10% glycerol, 25 mM Tris-Cl, 300 mM NaCl, 0.2 mM EDTA, 0.2 mM DTT, pH 7.5 at 4° C. The protein was filtered using a 0.22 μm disposable filter unit (Millipore SCGP00525). The protein concentration was calculated from absorbance at 280 nm, using 280=0.67 cm-1 mg-1. Yield was 235 mg, total. The protein was stored at −80° C. Human Hormone-Sensitive Lipase (HSL) Enzyme Inhibition Assay:
HSL enzyme activity was measured by a colorimetric assay using 2,3-dimercapto-1-propanol tributyrate (Aldrich, St. Louis, Mo.) as a substrate. Typically, 1.5 mM 2,3-dimercapto-1-propanol tributyrate (DMPT) in 100 mM MOPS, pH 7.2, 0.2 mg/ml fatty acid-free BSA was prepared by sonication at 4° C. to homogenous suspension. Test compounds (2 mM stock in DMSO) were diluted 3 fold in series in DMSO. Compound solutions were diluted 24 fold in 1.5 mM DMPT containing solution and 18 ul per well was added to 384-well microplates (Corning Costar). Twelve microliters per well of human HSL (15 ug/ml) was added and the reaction mixture was incubated at 37° C. for 20 minutes. Six microliters of 12 mM dithio-bis-(2-nitrobenzoic acid) (DTNB) in DMSO plus 1.2% SDS and 0.6% Triton X-100 were added and the mixture was incubated at room temperature for 15 minutes. Product production was monitored by reading absorbance at 405 nm on an Envision Reader (PerkinElmer Life and Analytical Sciences, Shelton, Conn.).

Compound	IC50 [nM]
COc1ccc(N2CC[C@]3(CC[C@H](OCc4ccccc4)CC3)C2=O)cc1 [Example 40, (5α,8α)-8-Benzyloxy-2-(4-methoxy-phenyl)-2-aza-spiro[4.5]decan-1-one]	4590
CCO[C@H]1CC[C@]2(CCN(c3ccc(OC(F)(F)F)cc3)C2=O)CC1 [Example 41, (5α,8α)-8-Ethoxy-2-(4-trifluoromethoxy-phenyl)-2-aza-spiro[4.5]decan-1-one]	390
COc1ccc(N2CCC3(CC=CCC3)C2=O)cc1 (centres unmarked) [Example 47, 2-(4-Methoxy-phenyl)-2-aza-spiro[4.5]dec-7-en-1-one]	6750
O=C1N(c2ccc(OC(F)(F)F)cc2)CC[C@]12CC[C@H](Sc1ccccc1)CC2 [Example 52, (5α,8α)-8-Phenylsulfanyl-2-(4-trifluoromethoxy-phenyl)-2-aza-spiro[4.5]decan-1-one]	2270
O=C1N(c2ccc(OC(F)(F)F)cc2)CC[C@]12CC[C@@H](S(=O)(=O)c1ccccc1)CC2 [Example 53, (5α,8β)-8-Benzenesulfonyl-2-(4-trifluoromethoxy-phenyl)-2-aza-spiro[4.5]decan-1-one]	30
C[C@]1(O)CC[C@@]2(CCN(c3ccc(OC(F)(F)F)cc3)C2=O)CC1 [Example 58, (5α,8β)-8-Hydroxy-8-methyl-2-(4-trifluoromethoxy-phenyl)-2-aza-spiro[4.5]decan-1-one]	950
CC1=CC[C@@]2(CC1)CCN(c1ccc(OC(F)(F)F)cc1)C2=O [Example 59, 8-Methyl-2-(4-trifluoromethoxy-phenyl)-2-aza-spiro[4.5]dec-7-en-1-one]	1600
CC[C@]1(O)CC[C@@]2(CCN(c3ccc(OC(F)(F)F)cc3)C2=O)CC1 [Example 61, (5α,8β)-8-Ethyl-8-hydroxy-2-(4-trifluoromethoxy-phenyl)-2-aza-spiro[4.5]decan-1-one]	2090
O=C1N(c2ccc(OC(F)(F)F)cc2)CC[C@]12CC[C@@](O)(Cc1ccccc1)CC2 [Example 62, (5α,8α)-8-Benzyl-8-hydroxy-2-(4-trifluoromethoxy-phenyl)-2-aza-spiro[4.5]decan-1-one]	20

Next, values leading:

IC50 [nM]	Compound
560	O=C1N(c2ccc(C3CC3)cc2)CC[C@]12CC[C@H](O)CC2 [Example 39, (5α,8α)-2-(4-Cyclopropyl-phenyl)-8-hydroxy-2-aza-spiro[4.5]decan-1-one]
320	CCCO[C@H]1CC[C@]2(CCN(c3ccc(OC(F)(F)F)cc3)C2=O)CC1 [Example 42, (5α,8α)-8-Propoxy-2-(4-trifluoromethoxy-phenyl)-2-aza-spiro[4.5]decan-1-one]
740	CCc1ccc(N2CC[C@]3(CC[C@H](OCc4ccccc4)CC3)C2=O)cc1 [Example 43, (5α,8α)-8-Benzyloxy-2-(4-ethyl-phenyl)-2-aza-spiro[4.5]decan-1-one]
1480	CCCNC(=O)O[C@H]1CC[C@]2(CCN(c3ccc(CC)cc3)C2=O)CC1 [Example 44, Propyl-carbamic acid [(5α,8α)-2-(4-ethyl-phenyl)-1-oxo-2-aza-spiro[4.5]dec-8-yl]ester]
1110	CCc1ccc(N2CC[C@]3(CC[C@H](OC(=O)NCc4cccc(F)c4)CC3)C2=O)cc1 [Example 45, (3-Fluoro-benzyl)-carbamic acid [(5α,8α)-2-(4-ethyl-phenyl)-1-oxo-2-aza-spiro[4.5]dec-8-yl]ester]
4240	COc1ccc(N2CC[C@]3(CC[C@H](Oc4ccccc4)CC3)C2=O)cc1 [Example 46, (5α,8α)-2-(4-Methoxy-phenyl)-8-phenoxy-2-aza-spiro[4.5]decan-1-one]
1710	COc1ccc(N2CC[C@]3(CC[C@@H](Oc4ccccc4)CC3)C2=O)cc1 [Example 48, (5α,8β)-2-(4-Methoxy-phenyl)-8-phenoxy-2-aza-spiro[4.5]decan-1-one]
200	O=C1N(c2ccc(OC(F)(F)F)cc2)CC[C@]12CC=CCC2 [Example 50, 2-(4-Trifluoromethoxy-phenyl)-2-aza-spiro[4.5]dec-7-en-1-one]
20	O=C1N(c2ccc(OC(F)(F)F)cc2)CC[C@]12CC[C@@H]([S+]([O-])c1ccccc1)CC2 (stereo partly drawn) [Example 51, (5α,8β)-8-Benzenesulfinyl-2-(4-trifluoromethoxy-phenyl)-2-aza-spiro[4.5]decan-1-one]
640	O=C1CCC2(CC1)CCN(c1ccc(OC(F)(F)F)cc1)C2=O [Example 54, 2-(4-Trifluoromethoxy-phenyl)-2-aza-spiro[4.5]decane-1,8-dione]
20	CCC[C@]1(O)CC[C@]2(CCN(c3ccc(OC(F)(F)F)cc3)C2=O)CC1 [Example 55, (5α,8α)-8-Hydroxy-8-propyl-2-(4-trifluoromethoxy-phenyl)-2-aza-spiro[4.5]decan-1-one]
570	CCC[C@]1(O)CC[C@@]2(CCN(c3ccc(OC(F)(F)F)cc3)C2=O)CC1 [Example 56, (5α,8β)-8-Hydroxy-8-propyl-2-(4-trifluoromethoxy-phenyl)-2-aza-spiro[4.5]decan-1-one]
70	C[C@]1(O)CC[C@]2(CCN(c3ccc(OC(F)(F)F)cc3)C2=O)CC1 [Example 57, (5α,8α)-8-Hydroxy-8-methyl-2-(4-trifluoromethoxy-phenyl)-2-aza-spiro[4.5]decan-1-one]
30	CC[C@]1(O)CC[C@]2(CCN(c3ccc(OC(F)(F)F)cc3)C2=O)CC1 [Example 60, (5α,8α)-8-Ethyl-8-hydroxy-2-(4-trifluoromethoxy-phenyl)-2-aza-spiro[4.5]decan-1-one]
